This passage reports Activity and Ki results from ChEMBL document CHEMBL1149662, “Design and synthesis of a library of tertiary amides: evaluation as mimetics of the melanocortins' active core” (Bioorg Med Chem, 2007).

The source made the active and inactive calls. The calls are words filed in the database; no cut-off is given here.

A word on the Ki: it is the equilibrium dissociation constant of an inhibitor or competing ligand from its target.

Test [1] deals with T1, Melanocortin receptor 3 (Homo sapiens, UniProt P41968). The test can be described thus: Antagonist activity at MC3 receptor expressed in COS1 cells assessed as inhibition of alpha-MSH-induced cAMP accumulation at 100 uM. In kind it is functional, cell-based. To be noted: COS-1.
Test [2] addresses T2, Melanocortin receptor 5 (Homo sapiens, UniProt P33032). The test can be described thus: Antagonist activity at MC5 receptor expressed in COS1 cells assessed as inhibition of alpha-MSH-induced cAMP accumulation at 100 uM. Type of test: functional, cell-based. As to conditions: COS-1. (cAMP levels reflect the balance of adenylyl cyclase and phosphodiesterase activity.)
Test [3] has as its target Melanocyte-stimulating hormone receptor (Mus musculus) (UniProt Q01727). Description: Antagonist activity MC1 receptor in mouse B16 cells assessed as inhibition of alpha-MSH-induced cAMP accumulation at 100 uM. Type of test: functional, cell-based.
For test [4], the target named is T3, Melanocortin receptor 4 (Homo sapiens, UniProt P32245). The test can be described thus: Antagonist activity at MC4 receptor expressed in COS1 cells assessed as inhibition of alpha-MSH-induced cAMP accumulation at 100 uM. Type of test: functional, cell-based. As to conditions: COS-1.
The target in test [5] is T1, Melanocortin receptor 3. The test can be described thus: Displacement of [125I]NDP-MSH from human recombinant MC3 receptor expressed in Sf9 cells. Background: In a radioligand displacement assay an active substance lowers the binding of a labelled ligand.
Test [6] deals with Melanocyte-stimulating hormone receptor (Mus musculus, UniProt Q01727). The test can be described thus: Displacement of [125I]NDP-MSH from MC1 receptor in mouse B16 cells. Type of test: cell-based.
The target of test [7] is T2, Melanocortin receptor 5. The test can be described thus: Displacement of [125I]NDP-MSH from human recombinant MC5 receptor expressed in Sf9 cells.
The target of test [8] is T3, Melanocortin receptor 4. The test can be described thus: Displacement of [125I]NDP-MSH from human recombinant MC4 receptor expressed in Sf9 cells.

T2 sequence (P33032 whole entry): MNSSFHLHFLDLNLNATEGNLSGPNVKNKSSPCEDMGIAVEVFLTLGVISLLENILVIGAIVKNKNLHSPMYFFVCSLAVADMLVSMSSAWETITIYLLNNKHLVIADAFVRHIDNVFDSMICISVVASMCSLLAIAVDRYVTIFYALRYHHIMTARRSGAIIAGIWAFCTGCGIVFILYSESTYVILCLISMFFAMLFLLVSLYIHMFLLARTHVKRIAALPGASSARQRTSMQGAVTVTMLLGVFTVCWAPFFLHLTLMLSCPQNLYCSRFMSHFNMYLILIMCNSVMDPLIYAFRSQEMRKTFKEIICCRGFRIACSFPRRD
T3 sequence (P32245 whole entry): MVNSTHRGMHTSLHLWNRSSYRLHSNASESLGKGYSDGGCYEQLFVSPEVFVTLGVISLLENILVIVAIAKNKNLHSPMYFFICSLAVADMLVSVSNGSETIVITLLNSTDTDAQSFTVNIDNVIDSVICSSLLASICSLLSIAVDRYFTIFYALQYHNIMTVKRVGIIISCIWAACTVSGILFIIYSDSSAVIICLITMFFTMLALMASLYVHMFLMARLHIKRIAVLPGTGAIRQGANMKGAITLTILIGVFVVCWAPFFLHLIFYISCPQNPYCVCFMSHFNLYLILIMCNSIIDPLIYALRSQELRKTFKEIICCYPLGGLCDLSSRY
T1 sequence (P41968 whole entry): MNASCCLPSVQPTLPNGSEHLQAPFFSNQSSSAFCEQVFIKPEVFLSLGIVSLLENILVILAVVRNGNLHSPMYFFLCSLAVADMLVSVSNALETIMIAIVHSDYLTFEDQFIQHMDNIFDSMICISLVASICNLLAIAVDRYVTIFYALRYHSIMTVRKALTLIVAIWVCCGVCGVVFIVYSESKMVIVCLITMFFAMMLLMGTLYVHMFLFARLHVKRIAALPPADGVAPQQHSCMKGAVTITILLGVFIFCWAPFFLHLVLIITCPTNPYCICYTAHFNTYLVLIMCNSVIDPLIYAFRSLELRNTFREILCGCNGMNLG
Melanocyte-stimulating hormone receptor (Mus musculus), sequence (Q01727 whole entry, looked up): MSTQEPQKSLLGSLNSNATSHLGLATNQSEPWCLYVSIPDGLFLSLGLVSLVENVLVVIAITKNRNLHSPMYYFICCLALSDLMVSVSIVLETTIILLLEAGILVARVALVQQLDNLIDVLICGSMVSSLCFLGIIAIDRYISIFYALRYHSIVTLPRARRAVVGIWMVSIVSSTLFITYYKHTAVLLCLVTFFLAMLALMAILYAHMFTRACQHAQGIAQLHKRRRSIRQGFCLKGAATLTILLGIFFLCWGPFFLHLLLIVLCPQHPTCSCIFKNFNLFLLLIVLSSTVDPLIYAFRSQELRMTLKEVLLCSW
Melanocyte-stimulating hormone receptor, sequence (Q01727 whole entry): as the sequence (Q01727 whole entry, looked up) above

In the case of `N=C(N)NCCCCN(Cc1ccc2ccccc2c1)C(=O)CCc1c[nH]c2ccccc12`, the outcome in test [1], in test [2], in test [3] and in test [4] was Active.

For the compound `NCCCCCN(C/C=C/c1ccccc1)C(=O)CCc1c[nH]c2ccccc12`, the result in test [1], in test [2], in test [3] and in test [4] was Active. Also, the Ki in test [5] was 27 µM; in test [6], 3.7 µM; in test [7] it was 8 µM; in test [8] it was 8.1 µM.

Consider `NCCCN(Cc1ccc2ccccc2c1)C(=O)Cc1c[nH]c2ccccc12`, for which the outcome in test [1], in test [2], in test [3] and in test [4] was Active. Further, the Ki in test [5] worked out at 63 µM; in test [6], 20 µM; in test [7] it was 12 µM; in test [8], 161 µM.

For the compound `N#Cc1ccc(CN(C(=O)CCCc2c[nH]c3ccccc23)C2CCC(CC3CCC(N)CC3)CC2)cc1` (stereo in doubt; form 1), the Ki in test [5] was 12 µM; in test [6] it was 1.6 µM; in test [7] it was 6.5 µM; in test [8], 2 µM.

Consider `NCCN(C(=O)[C@H](N)Cc1ccc(Cl)cc1)C1CCC2(CCCCC2)CC1`, for which the Ki in test [5] worked out at 1.7 µM; in test [6] it was 3.7 µM; in test [7], 3.2 µM; in test [8] it was 2.4 µM.

Regarding `N=C(N)NC1CCC(CC2CCC(N(Cc3ccccc3)C(=O)CCCc3c[nH]c4ccccc34)CC2)CC1` (stereo not given), the Ki in test [5] stood at 19 µM; in test [6], 1.5 µM; in test [7] it was 2.6 µM; in test [8], 3.4 µM.

With `NCCCCCN(Cc1ccc2ccccc2c1)C(=O)CCCc1c[nH]c2ccccc12`, the result in test [1], in test [2], in test [3] and in test [4] was Active. The Ki amounted to 20 µM in test [5], 5.1 µM in test [6], 34 µM in test [7] and 12 µM in test [8].

Turning to `N[C@H]1CC[C@H](N(C/C(Cl)=C/c2ccccc2)C(=O)CCCc2c[nH]c3ccccc23)CC1`, the Ki in test [5] amounted to 10 µM; in test [6], 2.8 µM; in test [7], 10 µM; in test [8], 3.2 µM.

With `NC1CCC(CC2CCC(N(C/C(Cl)=C/c3ccccc3)C(=O)CCCc3c[nH]c4ccccc34)CC2)CC1` (stereo in doubt; form 1), the Ki was determined as 7.1 µM in test [5], 0.51 µM in test [6], 47 µM in test [7] and 4.1 µM in test [8].

Consider `C/C(=C\c1ccccc1)CN(CCCCCCN)C(=O)c1cc2cc(O)ccc2[nH]1`, for which the Ki in test [5] is 27 µM; in test [6], 3.7 µM; in test [7], 20 µM; in test [8], 11 µM.

For `N=C(N)NCCCN(Cc1ccc2ccccc2c1)C(=O)CCc1c[nH]c2ccccc12`, the outcome in test [1], in test [2], in test [3] and in test [4] was Active. Besides, the Ki turned out to be 53 µM in test [5], 12 µM in test [6], 13 µM in test [7] and 16 µM in test [8].

For `NCCCCCN(C/C(Cl)=C\c1ccccc1)C(=O)CCCc1c[nH]c2ccccc12`, the Ki in test [5] was 5.4 µM; in test [6] it was 0.77 µM; in test [7], 28 µM; in test [8], 2.3 µM.

`NC1CCC(CC2CCC(N(C/C=C/c3ccccc3)C(=O)CCCc3c[nH]c4ccccc34)CC2)CC1` (stereo not given): the Ki in test [5] was 16 µM; in test [6], 2.7 µM; in test [7], 7.7 µM; in test [8], 9.2 µM.

Take `NCCCCCCN(Cc1ccccc1)C(=O)CCCc1c(Cc2ccc(O)cc2)[nH]c2ccccc12`: the Ki in test [5] turned out to be 36 µM; in test [6], 2.3 µM; in test [7], 2.1 µM; in test [8] it was 3.7 µM.

For `COc1cc(Br)c(/C=C/CN(C(=O)CCCc2c[nH]c3ccccc23)C2CCC(CC3CCC(N)CC3)CC2)cc1OC` (stereo not given), the Ki is 14 µM in test [5], 2 µM in test [6], 266 µM in test [7] and 3.2 µM in test [8].

For the compound `C=C(Br)CN(C(=O)CCCc1c[nH]c2ccccc12)C1CCC(CC2CCC(N)CC2)CC1` (stereo in doubt; form 1), the Ki was 19 µM in test [5], 1.2 µM in test [6], 4.9 µM in test [7] and 3.2 µM in test [8].

Turning to `NC1CCCC(NC(=O)NC2CCCC(N(C/C(Cl)=C/c3ccccc3)C(=O)CCCc3c[nH]c4ccccc34)C2)C1` (stereo not given), the Ki turned out to be 45 µM in test [5], 3.1 µM in test [6], 16 µM in test [7] and 18 µM in test [8].

With `COc1cc(Cl)c(CN(C(=O)CCCc2c(Cc3ccc(O)cc3)[nH]c3ccccc23)C2CCC(CC3CCC(N)CC3)CC2)cc1OC` (stereo not given), the Ki in test [5] turned out to be 8.3 µM; in test [6] it was 0.63 µM; in test [7], 11 µM; in test [8] it was 1.9 µM.

Turning to `NC1CCCC(NC(=O)NC2CCCC(N(Cc3ccccc3)C(=O)CCCc3c[nH]c4ccccc34)C2)C1` (stereo not given), the Ki in test [5] is 57 µM; in test [6] it was 2.2 µM; in test [7], 49 µM; in test [8], 5.3 µM.

Regarding `NCCN(Cc1ccc2ccccc2c1)C(=O)Cc1c[nH]c2ccccc12`, the outcome in test [1], in test [2], in test [3] and in test [4] was Active. In addition, the Ki in test [5] was determined as 68 µM; in test [6], 36 µM; in test [7], 18 µM; in test [8], 140 µM.

With `C/C(=C/c1ccccc1)CN(CCCCCN)C(=O)CCCc1c[nH]c2ccccc12`, the Ki in test [5] stood at 22 µM; in test [6], 3.5 µM; in test [7], 8.7 µM; in test [8], 4.7 µM.

On to `N=C(N)NCCN(Cc1ccc2ccccc2c1)C(=O)CCc1c[nH]c2ccccc12`, for which the Ki in test [5] was 65 µM; in test [6] it was 14 µM; in test [7], 17 µM; in test [8] it was 149 µM.

`NCC1CCCC(CN(C/C(Cl)=C/c2ccccc2)C(=O)CCCc2c[nH]c3ccccc23)C1` (stereo not given): the Ki was 25 µM in test [5], 1.5 µM in test [6], 9.1 µM in test [7] and 3.7 µM in test [8].

For the compound `COc1ccccc1/C=C/CN(C(=O)CCCc1c[nH]c2ccccc12)C1CCC(CC2CCC(N)CC2)CC1` (stereo in doubt; form 2), the Ki in test [5] came out at 31 µM; in test [6], 1.6 µM; in test [7], 5 µM; in test [8], 4.1 µM.

As for `CC1CC(CC2CCC(N(C/C(Cl)=C/c3ccccc3)C(=O)CCCc3c[nH]c4ccccc34)C(C)C2)CCC1N` (stereo in doubt; form 2), the Ki worked out at 13 µM in test [5], 2.2 µM in test [6], 4.8 µM in test [7] and 3.1 µM in test [8].

Regarding `COc1cc(Cl)c(CN(C(=O)CCCc2c[nH]c3ccccc23)C2CCC(CC3CCC(N)CC3)CC2)cc1OC` (stereo in doubt; form 1), the Ki in test [5] was determined as 24 µM; in test [6] it was 2.1 µM; in test [7], 4.3 µM; in test [8], 2.3 µM.

As to `NCCCCCCN(C/C(Cl)=C/c1ccccc1)C(=O)CCCc1c[nH]c2ccccc12`, the Ki in test [5] came out at 26 µM; in test [6], 2.4 µM; in test [7], 21 µM; in test [8], 3.8 µM.

For `NC1CCC(CC2CCC(N(C/C(Cl)=C/c3ccccc3)C(=O)CCCc3c[nH]c4ccccc34)CC2)CC1` (stereo in doubt; form 4), the Ki was 31 µM in test [5], 1.4 µM in test [6], 4.9 µM in test [7] and 5.6 µM in test [8].

As for `N[C@@H]1CCCC[C@H]1N(C/C=C/c1ccccc1)C(=O)CCCc1c[nH]c2ccccc12`, the Ki was determined as 62 µM in test [5], 12 µM in test [6], 555 µM in test [7] and 116 µM in test [8].

Regarding `NCCCN(C/C=C/c1ccccc1)C(=O)c1c[nH]c2ccccc12`, the Ki in test [5] is 172 µM; in test [6], 17 µM; in test [7], 12 µM; in test [8] it was 23 µM.

With `NCCCCCN(Cc1ccccc1)C(=O)[C@H](N)Cc1ccc(-c2ccccc2)cc1`, the Ki is 18 µM in test [5], 3.9 µM in test [6], 20 µM in test [7] and 14 µM in test [8].

On to `NCCCCCN(Cc1ccc2c(c1)OCO2)C(=O)CCCc1c[nH]c2ccccc12`, for which the Ki in test [5] is 38 µM; in test [6] it was 5.5 µM; in test [7], 23 µM; in test [8] it was 12 µM.

Consider `N#Cc1ccc(CN(C(=O)CCCc2c(Cc3ccc(O)cc3)[nH]c3ccccc23)C2CCC(CC3CCC(N)CC3)CC2)cc1` (stereo not given), for which the Ki in test [5] came out at 25 µM; in test [6], 1.4 µM; in test [7] it was 21 µM; in test [8], 2.4 µM.

Consider `NC1CCC(CC2CCC(N(Cc3ccccc3F)C(=O)CCCc3c[nH]c4ccccc34)CC2)CC1` (stereo not given), for which the Ki in test [5] is 20 µM; in test [6], 2.4 µM; in test [7], 7.2 µM; in test [8] it was 3.7 µM.

`NC1CCC(CC2CCC(N(C/C(Cl)=C/c3ccccc3)C(=O)COc3ccc4ccccc4c3)CC2)CC1` (stereo in doubt; 10b-36-14): the Ki in test [5] was 23 µM; in test [6] it was 1.5 µM; in test [7] it was 5.5 µM; in test [8], 3.7 µM.
